The values below come from patent publication US20250228239A1, “MOLECULES HAVING PESTICIDAL UTILITY, AND INTERMEDIATES, COMPOSITIONS, AND PROCESSES, RELATED THERETO” (priority 2024, published 2025).

Like-named read-outs stand apart in the source and are kept apart here.

Type in all cases: in vivo
Experiment [1] concerns Beet Armyworm (Spodoptera exigua, LAPHEG). Briefly: Bioassays on Beet Armyworm (BAW), 128-well diet tray assay. To be noted: Spodoptera exigua. In short, it runs like this:
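Second-instar larvae, one to five per well, were placed on artificial diet surface-treated with 50 μg/cm^2 compound in 90:10 acetone-water, eight wells per treatment. Trays were held 5–7 days at 25 °C, 14:10 light-dark. Percent mortality per well was averaged over eight wells.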

Experiment [2] relates to Cabbage Looper (Trichoplusia ni, TRIPNI). Nature of the experiment: Bioassays on Cabbage Looper (CL), 128-well diet tray assay. To be noted: Trichoplusia ni. An outline of the steps:
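Diet tray, 2nd instar, 1–5 larvae/well; 50 μg/cm^2 compound surface-applied (acetone:water 90:10), dried; 8 wells/treatment; 25° C, 14:10 L:D, 5–7 d; % mortality, mean of 8 wells.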

The subject of experiment [3] is Yellow Fever Mosquito (Aedes aegypti, AEDSAE). As to conditions: for YFM rating: Table ABC / ABC-DP rating. An outline of the steps: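 Larvae ~1 day old, in liver powder/water; compound from 4000 ppm DMSO stock diluted with water/acetone (90:10); 6 reps; lidded, RT, 3 d; mortality scored per well, rated.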
Setting [4] is: Beet Armyworm, Table ABC / ABC-DP rating, read-out: BAW rating.
Where [5] appears, read: Cabbage Looper, Table ABC / ABC-DP rating, read-out: CL rating.
[6] abbreviates: Beet Armyworm, rating class, read-out: BAW.
Setting [7] is: Cabbage Looper, rating class, read-out: CL.
Setting [8] is: Yellow Fever Mosquito, rating class.
Where [9] appears, read: Table ABC: Biological Results, species BAW, read-out: BAW.
Setting [10] is: Table ABC: Biological Results, species CL, read-out: CL.
Setting [11] is: Table ABC: Biological Results, species YFM.

On to `CN(NC(=O)c1cc(NC(=O)[C@H]2[C@H](c3cc(Cl)cc(Cl)c3)C2(Cl)Cl)ccc1Cl)C(=O)OC(C)(C)C` (relative stereo) [F2520, trans-tert-Butyl 2-(2-chloro-5-(2,2-dichloro-3-(3,5-dichlorophenyl)cyclopropane-1-carboxamido)benzoyl)-1-methylhydrazine-1-carboxylate], for which the pest or weed control at 50 µg/cm2 in experiment [1] (setting [4]) and in experiment [2] (setting [5]) was 50 to 100% in each case. In addition, the YFM rating result in experiment [3] (Yellow Fever Mosquito) is reported as “A (80–100)”.
Take `O=C(Nc1ccc(F)c(NC(=O)C2CC2(F)F)c1F)c1cc(NC(=O)[C@H]2[C@H](c3ccc(Cl)c(Cl)c3)C2(Cl)Cl)ccc1Cl` (stereo partly drawn) [F1608, 2-Chloro-5-((1R,3R)-2,2-dichloro-3-(3,4-dichlorophenyl)cyclopropane-1-carboxamido)-N-(3-(2,2-difluorocyclopropane-1-carboxamido)-2,4-difluorophenyl)benzamide]: the pest or weed control at 50 µg/cm2 in experiment [1] (setting [6]) and in experiment [2] (setting [7]) was 50 to 100% in each case. Also, the YFM result in experiment [3] (setting [8]) is listed as “A (80–100)”.
Turning to `O=C(NCC(F)(F)F)c1cc(NC(=O)[C@H]2[C@@H](c3ccc(F)c(Cl)c3F)C2(Cl)Cl)ccc1Cl` (relative stereo) [F2010, cis-2-Chloro-5-(2,2-dichloro-3-(3-chloro-2,4-difluorophenyl)cyclopropane-1-carboxamido)-N-(2,2,2-trifluoroethyl)benzamide], the pest or weed control at 50 µg/cm2 in experiment [1] (setting [4]) and in experiment [2] (setting [5]) was 50 to 100% in each case. For the same molecule, the YFM rating result in experiment [3] (Yellow Fever Mosquito) was “A (80–100)”.
As to `O=C(Nc1ccc(F)cc1F)c1cc(NC(=O)[C@H]2[C@H](c3ccc(F)c(C(F)(F)F)c3)C2(Cl)Cl)c(F)cc1Cl` [F1727, 2-Chloro-5-((1R,3R)-2,2-dichloro-3-(4-fluoro-3-(trifluoromethyl)phenyl)cyclopropane-1-carboxamido)-N-(2,4-difluorophenyl)-4-fluorobenzamide], the pest or weed control at 50 µg/cm2 in experiment [1] (setting [6]) and in experiment [2] (setting [7]) was 50 to 100% in each case. Further, in experiment [3] (setting [8]), the YFM entry was “A (80–100)”.
For the molecule `O=C1CC(C(=O)Nc2c(F)ccc(NC(=O)c3cc(NC(=O)[C@H]4[C@H](c5ccc(F)c(C(F)(F)F)c5)C4(Cl)Cl)ccc3Cl)c2F)C1` [F1303, 2-Chloro-5-((1R,3R)-2,2-dichloro-3-(4-fluoro-3-(trifluoromethyl)phenyl)cyclopropane-1-carboxamido)-N-(2,4-difluoro-3-(3-oxocyclobutane-1-carboxamido)phenyl)benzamide], the pest or weed control at 50 µg/cm2 in experiment [1] (setting [9]) and in experiment [2] (setting [10]) was 50 to 100% in each case. For the same molecule, the YFM result in experiment [3] (setting [11]) is given as “A (80–100)”.
With `CC(=O)Nc1c(F)ccc(NC(=O)c2cc(NC(=O)[C@H]3[C@H](c4ccc(F)c(C(F)(F)F)c4)C3(Cl)Cl)ccc2Cl)c1Cl` [F1161, N-(3-Acetamido-2-chloro-4-fluorophenyl)-2-chloro-5-((1R,3R)-2,2-dichloro-3-(4-fluoro-3-(trifluoromethyl)phenyl)cyclopropane-1-carboxamido)benzamide], the pest or weed control at 50 µg/cm2 in experiment [1] (setting [9]) and in experiment [2] (setting [10]) was 50 to 100% throughout. Besides, the YFM result in experiment [3] (setting [11]) is on record as “A (80–100)”.
On to `CC(=O)Nc1ccc(NC(=O)c2cc(NC(=O)[C@H]3[C@H](c4ccc(F)c(Cl)c4)C3(Cl)Cl)cc(Cl)c2C)cc1` (relative stereo) [F1191, trans-N-(4-Acetamidophenyl)-3-chloro-5-(2,2-dichloro-3-(3-chloro-4-fluorophenyl)cyclopropane-1-carboxamido)-2-methylbenzamide], for which the pest or weed control at 50 µg/cm2 in experiment [1] (setting [9]) and in experiment [2] (setting [10]) was 50 to 100% in each case. Moreover, the YFM result in experiment [3] (setting [11]) is “A (80–100)”.
With `COc1ccc(CNc2c(F)ccc(NC(=O)c3cc(NC(=O)[C@H]4[C@H](c5ccc(F)c(C(F)(F)F)c5)C4(Cl)Cl)ccc3Cl)c2F)cc1` (relative stereo) [F1096, trans-2-Chloro-5-(2,2-dichloro-3-(4-fluoro-3-(trifluoromethyl)phenyl)cyclopropane-1-carboxamido)-N-(2,4-difluoro-3-((4-methoxybenzyl)amino)phenyl)benzamide], the pest or weed control at 50 µg/cm2 in experiment [1] (setting [9]) and in experiment [2] (setting [10]) was 50 to 100% each time. Besides, in experiment [3] (setting [11]), the YFM result was “A (80–100)”.
Consider `O=C(Nc1cc(NC(=O)C(F)F)c(F)c(F)c1F)c1cc(NC(=O)[C@H]2[C@H](c3ccc(F)c(C(F)(F)F)c3)C2(Cl)Cl)ccc1Cl` [F1744, 2-Chloro-5-((1R,3R)-2,2-dichloro-3-(4-fluoro-3-(trifluoromethyl)phenyl)cyclopropane-1-carboxamido)-N-(5-(2,2-difluoroacetamido)-2,3,4-trifluorophenyl)benzamide], for which the pest or weed control at 50 µg/cm2 in experiment [1] (setting [6]) and in experiment [2] (setting [7]) was 50 to 100% in each case. The YFM result in experiment [3] (setting [8]) was “A (80–100)”.
Regarding `CN(NC(=O)c1cc(NC(=O)[C@H]2[C@H](c3cc(Cl)cc(Cl)c3)C2(Cl)Cl)ccc1Cl)c1ccccc1` (relative stereo) [F2557, trans-2,2-Dichloro-N-(4-chloro-3-(2-methyl-2-phenylhydrazine-1-carbonyl)phenyl)-3-(3,5-dichlorophenyl)cyclopropane-1-carboxamide], the pest or weed control at 50 µg/cm2 in experiment [1] (setting [4]) and in experiment [2] (setting [5]) was 50 to 100% in each case. The YFM rating result in experiment [3] (Yellow Fever Mosquito) is given as “A (80–100)”.
On to `Cc1c(N)cccc1NC(=O)c1cc(NC(=O)[C@H]2[C@H](c3ccc(F)c(C(F)(F)F)c3)C2(Cl)Cl)ccc1Cl` [F1448, N-(3-Amino-2-methylphenyl)-2-chloro-5-((1R,3R)-2,2-dichloro-3-(4-fluoro-3-(trifluoromethyl)phenyl)cyclopropane-1-carboxamido)benzamide], for which the pest or weed control at 50 µg/cm2 in experiment [1] (setting [6]) and in experiment [2] (setting [7]) was 50 to 100% throughout. Moreover, in experiment [3] (setting [8]), the YFM result is listed as “A (80–100)”.
Regarding `O=C(NCCC(F)(F)F)c1c(Cl)ccc(NC(=O)[C@H]2[C@H](c3ccc(F)c(Cl)c3)C2(Cl)Cl)c1Cl` (relative stereo) [F2024, trans-2,6-Dichloro-3-(2,2-dichloro-3-(3-chloro-4-fluorophenyl)cyclopropane-1-carboxamido)-N-(3,3,3-trifluoropropyl)benzamide], the pest or weed control at 50 µg/cm2 in experiment [1] (setting [4]) and in experiment [2] (setting [5]) was 50 to 100% throughout. In experiment [3] (Yellow Fever Mosquito), the YFM rating result was “A (80–100)”.
Turning to `O=C(Nc1ccc(F)cc1F)c1cc(NC(=O)[C@H]2[C@H](c3cc(C(F)(F)F)cc(Cl)c3F)C2(Cl)Cl)ccc1Cl` (relative stereo) [F1050, trans-2-Chloro-5-(2,2-dichloro-3-(3-chloro-2-fluoro-5-(trifluoromethyl)phenyl)cyclopropane-1-carboxamido)-N-(2,4-difluorophenyl)benzamide], the pest or weed control at 50 µg/cm2 in experiment [1] (setting [9]) and in experiment [2] (setting [10]) was 50 to 100% in each case. In experiment [3] (setting [11]), the YFM result is recorded as “A (80–100)”.
Consider `O=C(Nc1ccccc1)c1cc(NC(=O)[C@H]2[C@H](c3ccc(F)c(Cl)c3)C2(Cl)Cl)cc(C(F)(F)F)c1Cl` (relative stereo) [F1212, trans-2-Chloro-5-(2,2-dichloro-3-(3-chloro-4-fluorophenyl)cyclopropane-1-carboxamido)-N-phenyl-3-(trifluoromethyl)benzamide], for which the pest or weed control at 50 µg/cm2 in experiment [1] (setting [9]) and in experiment [2] (setting [10]) was 50 to 100% in each case. In addition, in experiment [3] (setting [11]), the YFM result is “A (80–100)”.
On to `CC(=O)Nc1cc(NC(=O)c2cc(NC(=O)[C@H]3[C@H](c4ccc(Cl)c(Cl)c4)C3(Cl)Cl)ccc2F)c(F)cc1F` [F1511, N-(5-Acetamido-2,4-difluorophenyl)-5-((1R,3R)-2,2-dichloro-3-(3,4-dichlorophenyl)cyclopropane-1-carboxamido)-2-fluorobenzamide], for which the pest or weed control at 50 µg/cm2 in experiment [1] (setting [6]) and in experiment [2] (setting [7]) was 50 to 100% in each case. The YFM entry in experiment [3] (setting [8]) is “A (80–100)”.
Consider `CN(C(=O)c1cc(NC(=O)[C@H]2[C@H](c3ccc(F)c(C(F)(F)F)c3)C2(Cl)Cl)ccc1Cl)c1ccc(F)c(NC(=O)COC(F)(F)F)c1F` [F1796, 2-Chloro-5-((1R,3R)-2,2-dichloro-3-(4-fluoro-3-(trifluoromethyl)phenyl)cyclopropane-1-carboxamido)-N-(2,4-difluoro-3-(2-(trifluoromethoxy)acetamido)phenyl)-N-methylbenzamide], for which the pest or weed control at 50 µg/cm2 in experiment [1] (setting [4]) and in experiment [2] (setting [5]) was 50 to 100% each time. In addition, the YFM rating entry in experiment [3] (Yellow Fever Mosquito) is “A (80–100)”.
Regarding `O=C(Nc1ccc(F)c(NC(=O)C(F)F)c1F)c1cc(NC(=O)[C@H]2[C@H](c3cccc(I)c3)C2(Cl)Cl)ccc1Cl` (relative stereo) [F1281, trans-2-chloro-5-(2,2-dichloro-3-(3-iodophenyl)cyclopropane-1-carboxamido)-N-(3-(2,2-difluoroacetamido)-2,4-difluorophenyl)benzamide], the pest or weed control at 50 µg/cm2 in experiment [1] (setting [9]) and in experiment [2] (setting [10]) was 50 to 100% each time. For the same molecule, in experiment [3] (setting [11]), the YFM entry was “A (80–100)”.
Turning to `O=C(Nc1ccc(F)cc1F)c1cc(NC(=O)[C@H]2[C@H](c3ccc(F)c(Cl)c3)C2(Cl)Cl)cc(C(F)(F)F)c1Cl` (relative stereo) [F1215, trans-2-Chloro-5-(2,2-dichloro-3-(3-chloro-4-fluorophenyl)cyclopropane-1-carboxamido)-N-(2,4-difluorophenyl)-3-(trifluoromethyl)benzamide], the pest or weed control at 50 µg/cm2 in experiment [1] (setting [9]) and in experiment [2] (setting [10]) was 50 to 100% in each case. Besides, the YFM entry in experiment [3] (setting [11]) is given as “A (80–100)”.
